Test results taken from patent US20160082127A1, “PHOTOSENSITIZER PARTICLES FOR MEDICAL IMAGING AND/OR PHOTODYNAMIC THERAPY” (DCB-USA LLC, priority 2013, published 2016).

Test system: mice skin
Experiment: In vivo photohypersensitivity of mice skin
Set-up: species or system nude mice
Conditions: 0.3 mg/kg i.v.
Description: It is well known that some PDT agents result in photohypersensitivity of the skin, which causes significant inconvenience in the daily life of the patient. Typical signs of photohypersensitivity include redness and swelling of the skin, visible angiopathy along with the formation of skin debris and even eschar in server cases. To investigate whether the present photosensitizer particles may elicit photohypersensitivity in the patient, 0.3 mg/kg native CPLA photosensitizer particles (LN1 particles from Example 2.1, above) and 0.3 mg/kg gas-loaded CPLA photosensitizer particles (LA1 particles from Example 2.1, above) were respectively injected to the tail of nude mice via intravenous injection 3 hours prior to light irradiation (15, 40 or 100 J/cm^2). Foscan® (0.3 mg/kg) was used as the positive control, while 1×PBS (100 μL) was used as negative control.

## Oc1cccc(-c2c3nc(c(-c4cccc(O)c4)c4ccc([nH]4)c(-c4cccc(O)c4)c4nc(c(-c5cccc(O)c5)c5ccc2[nH]5)CC4)C=C3)c1 [Foscan®]
15 or 40 J/cm^2
  photohypersensitivity of skin: little to mild photohypersensitivity
100 J/cm^2
  photohypersensitivity of skin: significant photohypersensitivity
